1 molecule from PMC5766581, “NF-κB inducing kinase is a therapeutic target for systemic lupus erythematosus” (Nature Communications, 2018) can be followed below.

For data set [1], the system named is rhCD40L induced ICOSL expression on human B cells. Kind of data set: ICOSL expression on human B cell assay. In kind it is cell-based. The settings on record: B-cell, ICOSL MFI by FACS, mean ± SD, read-out: CD40-induced ICOSL IC50. Here is the method:
Human B cells were isolated from whole blood. B cells were enriched by RosetteSep protocol (Stem Cell Technologies), and then isolated using Human B cell isolation kit II (Miltenyi). […] Mean fluorescent intensity (MFI) of CD40L and BAFF induced ICOSL expression was measured by flow cytometry on cells stained with anti-CD20 and anti-ICOSL, using a FACS Calibur instrument (BD). Plots and IC50 measurements were generated using GraphPad Prism Software.

The test system of the next data set is human B cells. Put plainly: Human B cell anti-IgM proliferation assay. The settings on record: Homo sapiens, B-cell; thymidine incorporation, day four. The format is cell-based.
Data set [2] deals with IL-12p40 production from mouse splenic DC. Put plainly: anti-CD40-induced IL-12p40 production from splenic DCs. The format is cell-based. Particulars: WT mouse splenic DC (not in NIK-deficient); 3 µM or 1 µM, 18 hrs. The protocol: Supplementary Figure 2. NIK inhibition of IL-12p40 production from splenic DCs Splenic DCs (B220- CD11c +) were sorted from Nik WT/WT,CD11c-CRE + and Nik fl/fl, CD11c- […]
µM) for 18 hrs. IL-12p40 production was measured by ELISA. Data represented as mean ± standard deviation of 3 biological replicates. One-way ANOVA with Tukey’s test for multiple comparisons. *p<0.05, **p<0.01, ***p<0.001; ****p<0.0001; ns, not significant.

Data set [3] relates to TWEAK inducible genes in murine RPTEC. Kind of data set: TWEAK-induced NIK-dependent gene expression in RPTECs (RNASeq). Particulars: 3 μM. The format is cell-based, mouse. The protocol: Total RNA was extracted using Qiagen RNeasy kit as per manufacturer’s protocol including the on-column DNase digestion. Quality control of samples was done to determine RNA quantity and quality prior to their processing by RNA-seq. The concentration of RNA samples was determined using NanoDrop 8000 (Thermo Scientific) and the integrity of RNA was determined by Fragment Analyzer (Advanced Analytical). 0.5 ug of total RNA was used as an input material for library preparation using TruSeq RNA Sample Preparation Kit v2 (Illumina). Size of the libraries was confirmed using 2200 TapeStation and High Sensitivity D1K screen tape (Agilent Technologies) and their concentration was determined by qPCR based method using Library quantification kit (KAPA). The libraries were multiplexed and then sequenced on Illumina HiSeq2500 (Illumina) to generate 30 M of single end 50 base pair reads. […] Raw RNA sequencing reads were processed using the HTSeqGenie Bioconductor package. Reads were aligned to the reference mouse genome sequence (National Center for Biotechnology Information build 37) using the Genomic Short-Read Nucleotide Alignment Program algorithm. Uniquely aligned read pairs that fell within exons were counted to estimate individual gene expression levels. For inclusion, genes were required to have >10 reads in at least four samples. […] Data were analyzed and plotted using Expression Plot[72].

The next data set deals with NZB/W F1 mice. Put plainly: rAdV-IFNα-accelerated NZB/W F1 lupus model, 4-week biomarker study. In kind it is in vivo. Particulars: 180 mg/kg BID P.O. The protocol:
Age-matched (NZB x NZW) F1 mice were purchased from Jackson Laboratory. Fourteen to fifteen weeks old female NZB/W F1 mice were injected i.v. with 1.2 × 10^8 rAD5-CMV-IFNα (rAdV-IFNα) particles (Genentech) to accelerate disease[34],[69]. […] In efficacy studies, proteinuria and survival were tracked through day 84. A 4-week PD study was performed to measure cell subsets, serum Ig, chemokines, cytokines, and gene expression.
Kidneys were immersed in 10% neutral buffered formalin at ambient temperature for 24 h, then paraffin-embedded using routine methods. Four micron histologic sections were stained with Periodic acid–Schiff (PAS) for evaluation of glomerulonephritis and hematoxylin and eosin (H&E) for visual evaluation of interstitial inflammation by light microscopy. Scoring by the pathologist was performed in a blinded fashion. Glomerulonephritis severity scoring was on a 4-point semi-quantitative scale: “0” – normal or mild global lesions in <50% of glomeruli, “1”—global lesions in > 50% of glomeruli, <20% of which are severe (defined as >1 segment with <3 patent capillaries), “2”—global lesions in >50% of glomeruli, 20–80% of which are severe, and “3”— >80% of glomeruli with severe global lesions. Chronic pyelitis, cortical periarteritis, and tubulointerstitial nephritis severity was determined by blinded disease scoring. Severity scores for tubulointerstitial nephritis, periarteritis, and pyelitis were all on 4-point semiquantitative scales: “0”—no significant inflammation, “1”—sparse or focal inflammatory infiltrates, “2”—occasional moderately sized inflammatory infiltrates, and “3”—frequent large inflammatory infiltrates. Proteinuria measurements were done by dipstick (Multistix, Bayer Diagnostics). Protein concentration was assigned a proteinuria score with trace = […] = 1, 100 mg/dl = 2, >300 mg/dl = 4, and dead mice = 5.

A further data set addresses T1, PhK_gamma2 (Homo sapiens, UniProt P15735).
T1 construct: purchased Invitrogen / ThermoFisher SelectScreen
Put plainly: SelectScreen kinase panel. In kind it is biochemical.

T1 sequence (P15735 whole entry): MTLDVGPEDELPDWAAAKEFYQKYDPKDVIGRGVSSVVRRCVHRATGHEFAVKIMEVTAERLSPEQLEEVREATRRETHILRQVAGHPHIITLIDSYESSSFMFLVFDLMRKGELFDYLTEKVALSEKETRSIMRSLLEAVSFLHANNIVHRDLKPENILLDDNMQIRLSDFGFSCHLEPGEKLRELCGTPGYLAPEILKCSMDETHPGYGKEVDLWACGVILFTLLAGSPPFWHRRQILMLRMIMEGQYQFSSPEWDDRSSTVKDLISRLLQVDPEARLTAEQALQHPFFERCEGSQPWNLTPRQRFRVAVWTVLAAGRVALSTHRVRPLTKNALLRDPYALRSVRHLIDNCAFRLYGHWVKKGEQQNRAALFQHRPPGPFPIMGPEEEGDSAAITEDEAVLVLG

As for `COc1cc(C(N)=O)nc(-c2cccc(C#C[C@]3(O)CCN(C)C3=O)c2)c1` [NIK SMI1], in data set [1], the IC50 worked out at 0.0846 µM. In the data set on human B cells, the half-inhibitory concentration (IC50) is > 10 µM. In addition, the “anti-CD40-induced IL-12p40 production” value in data set [2] was “reduced”. The “TWEAK inducible gene expression” value in data set [3] (6 and 24 h, RNASeq) is given as “majority of TWEAK inducible genes were inhibited”. Also, the “genes induced by TWEAK and repressed by NIK SMI1” value in data set [3] (RPTEC in vitro) came out at 179 genes. In addition, in the data set on NZB/W F1 mice (4 weeks), the “frequency and numbers of splenic B cells, germinal center B cells and plasma cells” value is listed as “decreased”; the “frequency and numbers of splenic T effector memory (TEM) and T follicular helper (TFH) cells” value was “significantly reduced”; the “frequency and numbers of total CD4+ T-cells” value is “did not affect”; the “histopathologic scores of glomerulonephritis” value is reported as “reduced”. In the data set with NZB/W F1 mice (4 weeks), the “kidney expression of CCL9, CCL2, CXCL13 and CXCL11” value was “reduced”; the “serum CXCL16” value is listed as “significantly reduced”; the “serum TNF and IL-12p40” value was “reduced”; the “spleen weight or total splenocyte count” value is listed as “did not have a substantial effect”. In the data set on NZB/W F1 mice (4 weeks), the “splenic expression of ICOS and IL-21” value is recorded as “reduced”; the “splenic expression of Immunoglobulin J (Igj)” value is “strongly suppressed”. Besides, in the data set on NZB/W F1 mice (4 weeks, vs BR3-mIgG2a), the “suppression of serum anti-histone autoantibodies” value was “superior to BAFF blockade”. In addition, in the data set on NZB/W F1 mice (12 hours after final dose), the “terminal exposure vs in vitro IC70” value is listed as “at or above the in vitro-determined IC70 concentration”. In addition, at PhK_gamma2, the inhibition at 1 µM is -3%.

As a reminder, the IC50 is the concentration that inhibits the measured activity by half. Broadly, the inhibition is the relative decrease from the control value, in per cent.
